Assay [1] has as its target T1, RXR-alpha (Homo sapiens, UniProt P19793).
T1 construct: 400 ng/well full length RXR-alpha, RXR-beta, RXR-gamma or PPAR-gamma; purchased Abcam, Cambridge, MA
T1 sequence (P19793 1-462): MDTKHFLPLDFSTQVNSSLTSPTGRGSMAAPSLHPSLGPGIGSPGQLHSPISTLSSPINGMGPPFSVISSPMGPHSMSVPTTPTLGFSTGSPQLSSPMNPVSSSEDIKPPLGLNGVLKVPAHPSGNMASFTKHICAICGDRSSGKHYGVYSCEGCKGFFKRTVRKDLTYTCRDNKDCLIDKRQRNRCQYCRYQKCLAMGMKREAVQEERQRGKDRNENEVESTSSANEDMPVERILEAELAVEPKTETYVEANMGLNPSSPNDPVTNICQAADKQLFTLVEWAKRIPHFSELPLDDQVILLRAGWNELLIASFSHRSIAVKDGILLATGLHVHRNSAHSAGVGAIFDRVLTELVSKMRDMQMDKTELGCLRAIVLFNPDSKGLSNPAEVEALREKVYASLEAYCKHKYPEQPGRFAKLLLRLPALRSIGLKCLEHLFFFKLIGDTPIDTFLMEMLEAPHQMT
Nature of the assay: Experiment 4B binding to full length RXR-alpha. The conditions noted are these: 400 ng/well protein; 800 ng/well SA488-labelled peptide, 2 hours. The method, then:
(§1) Experiment 4B. Binding of immodulin peptides to RXR isoforms and domains. 100 ng/well recombinant human RXRa-DBD or RXRa-LBD, or 400 ng/well full length RXR-alpha, RXR-beta, RXR-gamma or PPAR-gamma (Abcam, Cambridge, MA) was adsorbed to wells of a 96-well plate for 60 minutes at room temperature, then blocked with 200 uL 1% BSA in PBS buffer overnight. The plate was washed with PBS and 800 ng/well Streptavidin-Alexa 488 conjugate (SA488)-labelled peptide was added. The plate was incubated for 2 hours at room temperature, washed and counted in a fluorometer (excitation/emission 485/525 nm). Significant binding above background is also shown (**p<0.05). […] When tested against domains of RXR-alpha, these peptides bind the DNA-binding domain (DBD) better than the ligand-binding domain (LBD).

The target in assay [2] is T2, RXR-beta (Homo sapiens, UniProt P28702).
T2 construct: 400 ng/well full length RXR-alpha, RXR-beta, RXR-gamma or PPAR-gamma; purchased Abcam, Cambridge, MA
T2 sequence (P28702 1-533): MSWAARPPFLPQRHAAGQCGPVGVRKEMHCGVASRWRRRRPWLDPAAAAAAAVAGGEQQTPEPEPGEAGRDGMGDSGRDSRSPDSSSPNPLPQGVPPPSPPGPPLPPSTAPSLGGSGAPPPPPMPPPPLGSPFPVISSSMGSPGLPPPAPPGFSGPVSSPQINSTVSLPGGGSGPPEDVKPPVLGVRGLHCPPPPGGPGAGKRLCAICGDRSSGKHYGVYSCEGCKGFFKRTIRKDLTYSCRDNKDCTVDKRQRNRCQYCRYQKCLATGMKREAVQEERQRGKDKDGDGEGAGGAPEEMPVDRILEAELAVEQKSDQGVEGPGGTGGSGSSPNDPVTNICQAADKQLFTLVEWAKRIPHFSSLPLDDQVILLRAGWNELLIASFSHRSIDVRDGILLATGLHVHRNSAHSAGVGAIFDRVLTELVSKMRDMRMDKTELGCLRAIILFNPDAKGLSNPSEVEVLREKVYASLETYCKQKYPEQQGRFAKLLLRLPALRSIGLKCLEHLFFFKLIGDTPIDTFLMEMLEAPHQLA
Nature of the assay: Experiment 4B binding to full length RXR-beta. The conditions noted are these: 400 ng/well protein; 800 ng/well SA488-labelled peptide, 2 hours. How it is done: as §1

Assay [3] deals with T3, RXR-gamma (Homo sapiens, UniProt P48443).
T3 construct: 400 ng/well full length RXR-alpha, RXR-beta, RXR-gamma or PPAR-gamma; purchased Abcam, Cambridge, MA
T3 sequence (P48443 1-463): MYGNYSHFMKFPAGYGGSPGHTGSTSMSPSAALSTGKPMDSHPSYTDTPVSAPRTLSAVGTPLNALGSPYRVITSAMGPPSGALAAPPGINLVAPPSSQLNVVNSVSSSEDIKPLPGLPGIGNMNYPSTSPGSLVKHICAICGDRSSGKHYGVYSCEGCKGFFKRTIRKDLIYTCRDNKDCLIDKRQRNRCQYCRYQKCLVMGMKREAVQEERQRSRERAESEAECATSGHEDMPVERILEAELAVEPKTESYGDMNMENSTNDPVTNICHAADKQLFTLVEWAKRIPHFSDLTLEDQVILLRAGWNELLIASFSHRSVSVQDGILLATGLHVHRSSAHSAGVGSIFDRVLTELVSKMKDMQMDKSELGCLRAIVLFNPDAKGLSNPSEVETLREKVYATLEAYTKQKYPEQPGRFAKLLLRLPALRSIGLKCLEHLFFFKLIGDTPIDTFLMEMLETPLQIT
Nature of the assay: Experiment 4B binding to full length RXR-gamma. As to conditions: 400 ng/well protein; 800 ng/well SA488-labelled peptide, 2 hours. The method, then: as §1

Assay [4] has as its target T4, PPAR-gamma (Homo sapiens, UniProt P37231).
T4 construct: 400 ng/well full length RXR-alpha, RXR-beta, RXR-gamma or PPAR-gamma; purchased Abcam, Cambridge, MA
T4 sequence (P37231 1-505): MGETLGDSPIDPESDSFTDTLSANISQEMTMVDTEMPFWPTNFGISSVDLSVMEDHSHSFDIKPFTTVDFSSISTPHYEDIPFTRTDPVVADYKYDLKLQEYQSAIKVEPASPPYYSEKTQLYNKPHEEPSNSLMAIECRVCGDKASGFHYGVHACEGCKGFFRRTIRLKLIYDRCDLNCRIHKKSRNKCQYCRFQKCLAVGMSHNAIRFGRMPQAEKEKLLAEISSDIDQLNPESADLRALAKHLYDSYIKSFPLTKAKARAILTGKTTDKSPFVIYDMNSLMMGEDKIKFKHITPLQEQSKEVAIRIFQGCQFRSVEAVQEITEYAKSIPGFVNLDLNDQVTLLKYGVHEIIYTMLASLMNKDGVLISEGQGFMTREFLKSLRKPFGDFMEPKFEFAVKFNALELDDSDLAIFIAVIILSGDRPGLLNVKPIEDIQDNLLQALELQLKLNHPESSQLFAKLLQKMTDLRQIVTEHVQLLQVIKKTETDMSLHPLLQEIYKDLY
Nature of the assay: Experiment 4B binding to full length PPAR-gamma. As to conditions: 400 ng/well protein; 800 ng/well SA488-labelled peptide, 2 hours. The method, then:
as §1

In assay [5] the target is T5, RXR-alpha DBD (Homo sapiens, UniProt P19793).
T5 construct: purchased Abcam, Cambridge, MA
T5 sequence (P19793 111-228): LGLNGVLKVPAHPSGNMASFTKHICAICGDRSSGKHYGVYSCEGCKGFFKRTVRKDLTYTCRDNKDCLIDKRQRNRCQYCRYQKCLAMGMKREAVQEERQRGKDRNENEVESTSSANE
Nature of the assay: Experiment 4B binding to RXR-alpha DBD. As to conditions: 100 ng/well protein; 800 ng/well SA488-labelled peptide, 2 hours. How it is done: as §1

Assay [6] has as its target T6, Nur77 (NR4A1) (Homo sapiens, UniProt P22736).
T6 construct: purchased Abcam Inc, Cambridge, MA
Nature of the assay: Experiment 4C binding to full-length Nur77. As to conditions: 400 ng/well Nur77; 333 ng/well SA488-labelled peptide, 60 min; background subtracted. The method, then: 400 ng/well recombinant human Nur77 protein (NR4A1) purchased from Abcam Inc, Cambridge, MA, was adsorbed to wells of a 96-well plate for 90 minutes at room temperature, then blocked with 200 uL 1% BSA in PBS buffer overnight. The plate was washed with PBS and then 333 ng/well Streptavidin-Alexa 488 conjugate (SA488)-labelled imm3 or imm4 peptide was added. The plate was incubated for 60 min at room temperature, washed and counted in a standard fluorometer (excitation/emission 485/525 nm). Background (buffer alone) was subtracted.

The source of these data is patent US12410220B2, “Modulation of mammalian cell lineage by synthetic immodulins” (priority 2021, dated 2025).

Marks after values point to notes of the source that are not given here. Peptide text beside a SMILES is read from it.

T6 sequence (P22736 whole entry): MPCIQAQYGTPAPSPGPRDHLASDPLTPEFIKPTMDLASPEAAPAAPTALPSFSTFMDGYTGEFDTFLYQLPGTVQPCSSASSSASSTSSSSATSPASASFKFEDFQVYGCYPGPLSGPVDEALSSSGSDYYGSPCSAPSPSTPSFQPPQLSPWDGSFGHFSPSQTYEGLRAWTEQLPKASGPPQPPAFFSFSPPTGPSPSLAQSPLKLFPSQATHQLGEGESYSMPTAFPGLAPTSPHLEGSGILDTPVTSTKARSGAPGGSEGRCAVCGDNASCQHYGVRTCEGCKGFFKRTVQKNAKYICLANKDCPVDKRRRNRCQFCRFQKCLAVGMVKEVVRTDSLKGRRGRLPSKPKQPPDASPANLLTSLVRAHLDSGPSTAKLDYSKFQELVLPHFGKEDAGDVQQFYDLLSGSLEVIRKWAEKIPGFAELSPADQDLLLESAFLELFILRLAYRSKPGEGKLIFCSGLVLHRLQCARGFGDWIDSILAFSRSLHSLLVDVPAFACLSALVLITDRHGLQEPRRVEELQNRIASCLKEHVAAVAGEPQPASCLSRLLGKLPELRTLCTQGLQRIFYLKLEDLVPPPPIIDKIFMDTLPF

As for `N=C(N)NCCC[C@H](NC(=O)CNC(=O)[C@H](CCCCN)NC(=O)[C@H](CO)NC(=O)[C@@H]1CCCN1C(=O)[C@H](CCCNC(=N)N)NC(=O)[C@H](CS)NC(=O)[C@H](CCC(N)=O)NC(=O)[C@H](CCCCN)NC(=O)[C@H](CCCCN)NC(=O)[C@H](CCCCN)NC(=O)[C@H](Cc1ccc(O)cc1)NC(=O)[C@H](Cc1ccccc1)NC(=O)CNC(=O)[C@H](CCCCN)NC(=O)[C@@H](N)CCCCN)C(=O)N[C@@H](CCCCN)C(=O)N[C@@H](CCCNC(=N)N)C(=O)NCC(=O)N[C@@H](Cc1ccccc1)C(=O)N[C@@H](CS)C(=O)N[C@@H](Cc1c[nH]c2ccccc12)C(=O)O` [imm3] (H-KKGFYKKKQCRPSKGRKRGFCW-OH; N-terminus and C-terminus assumed), in assay [1], the “Binding to RXR-alpha relative to imm3 binding to RXR-gamma (=100)” value was 11.2 ± 1.0**. Besides, the “Binding to RXR-beta relative to imm3 binding (=100)” value in assay [2] is recorded as 2.9 ± 1.1. In assay [3], the “Binding to RXR-gamma relative to imm3 binding (=100)” value is listed as 100.0 ± 16.5**. Besides, the “Binding to PPAR-gamma relative to imm3 binding (=100)” value in assay [4] is 2.1 ± 1.4. Besides, the “Binding to RXR-alpha DBD relative to imm3 binding (=100)” value in assay [5] was 22.2 ± 2.4**. The “Binding to Nur77 (NR4A1), normalized to imm3 binding=100” value in assay [6] came to 100.0 ± 9.3.

As to `CC(C)C[C@H](NC(=O)[C@H](C)NC(=O)[C@@H]1CCCN1C(=O)[C@H](Cc1c[nH]cn1)NC(=O)[C@H](CS)NC(=O)[C@H](CCC(N)=O)NC(=O)[C@H](CCCCN)NC(=O)[C@@H]1CCCN1C(=O)[C@H](Cc1c[nH]cn1)NC(=O)[C@H](Cc1ccccc1)NC(=O)[C@H](CC(N)=O)NC(=O)CNC(=O)[C@H](CC(N)=O)NC(=O)[C@@H](N)CCCNC(=N)N)C(=O)N[C@@H](CC(=O)O)C(=O)NCC(=O)N[C@@H](CCC(N)=O)C(=O)N[C@@H](CCCNC(=N)N)C(=O)NCC(=O)N[C@@H](CCCCN)C(=O)N[C@@H](CS)C(=O)N[C@@H](Cc1c[nH]c2ccccc12)C(=O)O` [imm4] (H-RNGNFHPKQCHPALDGQRGKCW-OH; N-terminus and C-terminus assumed), in assay [1], the “Binding to RXR-alpha relative to imm3 binding to RXR-gamma (=100)” value is reported as 3.6 ± 1.3. The “Binding to RXR-beta relative to imm3 binding (=100)” value in assay [2] stood at 0.3 ± 1.2. Also, in assay [3], the “Binding to RXR-gamma relative to imm3 binding (=100)” value is given as 3.6 ± 7.0. Further, in assay [4], the “Binding to PPAR-gamma relative to imm3 binding (=100)” value was found to be 0.1 ± 0.0. The “Binding to RXR-alpha DBD relative to imm3 binding (=100)” value in assay [5] worked out at 3.2 ± 2.0. Besides, in assay [6], the “Binding to Nur77 (NR4A1), normalized to imm3 binding=100” value was 0.3 ± 8.9.

Turning to `CC[C@H](C)[C@H](NC(=O)CNC(=O)[C@H](CCCNC(=N)N)NC(=O)[C@H](CCCCN)NC(=O)[C@H](CCCNC(=N)N)NC(=O)CNC(=O)[C@H](CCCNC(=N)N)NC(=O)[C@H](CO)NC(=O)[C@@H]1CCCN1C(=O)[C@H](CCCCN)NC(=O)[C@H](CS)NC(=O)[C@H](CCC(N)=O)NC(=O)[C@H](CCCCN)NC(=O)[C@H](CCCNC(=N)N)NC(=O)[C@H](CCCCN)NC(=O)[C@H](Cc1ccc(O)cc1)NC(=O)[C@H](Cc1ccccc1)NC(=O)CNC(=O)[C@H](CCCCN)NC(=O)[C@@H](N)CCCNC(=N)N)C(=O)N[C@@H](CS)C(=O)N[C@@H](Cc1c[nH]c2ccccc12)C(=O)O` [imm5] (H-RKGFYKRKQCKPSRGRKRGICW-OH; N-terminus and C-terminus assumed), the “Binding to RXR-alpha relative to imm3 binding to RXR-gamma (=100)” value in assay [1] was 17.2 ± 0.3**. Further, the “Binding to RXR-beta relative to imm3 binding (=100)” value in assay [2] came to 4.0 ± 0.8. The “Binding to RXR-gamma relative to imm3 binding (=100)” value in assay [3] is on record as 90.0 ± 19.6**. Also, the “Binding to PPAR-gamma relative to imm3 binding (=100)” value in assay [4] amounted to 1.6 ± 0.4. Besides, in assay [5], the “Binding to RXR-alpha DBD relative to imm3 binding (=100)” value was 22.7 ± 3.1**.

With `N=C(N)NCCC[C@H](NC(=O)[C@H](CCCNC(=N)N)NC(=O)[C@H](CCC(N)=O)NC(=O)CNC(=O)[C@H](CCC(N)=O)NC(=O)[C@H](CO)NC(=O)[C@H](CO)NC(=O)[C@H](CCCNC(=N)N)NC(=O)[C@H](CS)NC(=O)[C@H](CCC(N)=O)NC(=O)[C@H](CCCNC(=N)N)NC(=O)[C@H](CCCCN)NC(=O)[C@H](CCCNC(=N)N)NC(=O)[C@H](Cc1ccc(O)cc1)NC(=O)[C@H](Cc1ccccc1)NC(=O)CNC(=O)[C@H](CCCNC(=N)N)NC(=O)[C@@H](N)Cc1c[nH]cn1)C(=O)NCC(=O)N1CCC[C@H]1C(=O)N[C@@H](CS)C(=O)N[C@@H](Cc1c[nH]c2ccccc12)C(=O)O` [imm6] (H-HRGFYRKRQCRSSQGQRRGPCW-OH; N-terminus and C-terminus assumed), in assay [1], the “Binding to RXR-alpha relative to imm3 binding to RXR-gamma (=100)” value was 12.9 ± 0.5**. Moreover, the “Binding to RXR-beta relative to imm3 binding (=100)” value in assay [2] is 4.7 ± 0.4. For the same molecule, the “Binding to RXR-gamma relative to imm3 binding (=100)” value in assay [3] is given as 42.0 ± 11.6**. Further, in assay [4], the “Binding to PPAR-gamma relative to imm3 binding (=100)” value is 6.8 ± 2.0. Moreover, in assay [5], the “Binding to RXR-alpha DBD relative to imm3 binding (=100)” value is on record as 22.9 ± 2.1**.
